Patent publication US20260258003A1, “SLACK-ACTIVATING COMPOUNDS AND THEIR MEDICAL USE” (Johann Wolfgang Goethe-Universität Frankfurt am Main, priority 2023, published 2026)

Tests used:
[1] = molecular target: T1, serotonin 5-HT2B receptor (Homo sapiens, UniProt P41595); experiment: SafetyScreen44 binding; conditions: substantial = higher than 50%; for binding inhibition, 5-HT2B: 10 μM
T1 construct: Eurofins SafetyScreen44
Method: (§1) Compound enzyme inhibition effect was calculated as a % inhibition of control enzyme activity. […] Measurements were performed in duplicate.

[2] = system: voltage-gated (KV) potassium channel; experiment: SafetyScreen44 binding; set-up: species or system rat; conditions: 10 μM
Method: as §1

motor function of mice = experiment: Accelerating rotarod test (motor function); type: in vivo; set-up: motor function in the accelerating rotarod test: dose or concentration left out as unconfirmed; conditions: for motor function in the accelerating rotarod test: 15 min after administration
Method: (§2) Further studies were conducted to assess the in vivo efficacy of Compound 6 and Compound 10 in mice. In detail, experiments were performed in 8 to 16 weeks old C57BL/6N mice (Charles River, Sulzfeld, Germany) and animals with a genetic deletion of Slack (Slack^−/− mice^27) of either sex. Animals were housed on a 12 h light/dark cycle with access to food and water ad libitum. All experiments adhered to the guidelines of the International Association for the Study of Pain and to the ARRIVE (Animal Research: Reporting on In Vivo Experiments) guidelines, and were approved by and conducted in accordance with the regulations of the local Animal Welfare authorities (Regierungspräsidium Darmstadt, Germany). All behavioral studies were conducted during the light cycle of the day at room temperature (20-24° C.) by an observer blinded for the treatment of the animals and/or their genotype.
Accelerating rotarod and vertical pole test were performed as follows: Mice were placed on a rotarod treadmill (Ugo Basile, Italy) with increasing speed (4-40 rpm over 300 s), and were trained for 4-5 consecutive days. Only mice reaching the 300 seconds without falling off were included in the experiment. On the testing day, compounds were i.p. administered in a vehicle composed of 0.9% saline (Sigma-Aldrich) containing 10% 2-hydroxypropyl-β-cyclodextrine (ITW Reagents) and after 15 min the latency to fall off the accelerating rotarod was measured. Immediately thereafter, mice were placed head-upward on the top of a vertical pole with a rough surface (diameter 1 cm, height 40 cm) and the time until animals reached the ground was recorded (cut-off time 20 s). Means out of three trials for each time point were calculated for further analysis.

[3] = system: chloroquine-induced scratching behavior of mice; experiment: Chloroquine-induced acute itch (scratching) model, systemic treatment; type: in vivo; conditions: for chloroquine-induced scratching behavior: WT mice, 3, 10 or 30 mg/kg i.p. 15 min prior to s.c. chloroquine
Method: as §2
Acute itch behavior of the mice was monitored using a histamine-based, chloroquine-based and SLIGRL-based acute itch behavior model. In these models, three to four days before the experiment day, the fur on the dorsolateral aspect of the neck was shaved under brief isoflurane anesthesia. On the testing day, mice were habituated for 30 min in separate plexiglass cylinders (30 cm diameter). Compounds were dissolved in 0.9% saline containing 10% 2-hydroxypropyl-β-cyclodextrine and i.p. administered in a volume of maximal 200 μL. 15 min thereafter, the pruritogens chloroquine (200 μg), SLIGRL (100 μg) or histamine (800 μg), all dissolved in 0.9% saline (20 μL), were injected subcutaneously into the nape of the neck. Numbers of scratching bouts directed to the nape of the neck were assessed over 30 min by videotaping.

[4] = systemic administration of a low dose, preliminary experiments, data not shown

T1 sequence (P41595 whole entry): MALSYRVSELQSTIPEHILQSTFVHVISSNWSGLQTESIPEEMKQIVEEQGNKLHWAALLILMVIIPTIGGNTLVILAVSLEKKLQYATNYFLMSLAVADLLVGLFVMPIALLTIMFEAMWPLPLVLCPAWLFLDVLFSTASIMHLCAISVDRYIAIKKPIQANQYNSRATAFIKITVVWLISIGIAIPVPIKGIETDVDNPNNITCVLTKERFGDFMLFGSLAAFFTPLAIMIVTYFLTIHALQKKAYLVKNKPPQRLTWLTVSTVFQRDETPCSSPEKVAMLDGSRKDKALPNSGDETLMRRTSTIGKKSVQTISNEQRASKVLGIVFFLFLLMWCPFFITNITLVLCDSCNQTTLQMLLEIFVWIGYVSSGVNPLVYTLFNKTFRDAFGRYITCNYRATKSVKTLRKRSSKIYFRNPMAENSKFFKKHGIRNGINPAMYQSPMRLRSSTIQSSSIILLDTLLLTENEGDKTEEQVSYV

Compound | binding inhibition, 5-HT2B [1] | binding to voltage-gated (KV) potassium channel in the off-target screen [2] | motor function in the accelerating rotarod test (motor function of mice) | chloroquine-induced scratching in Slack−/− mice ([3]; Slack−/− mice, 10 mg/kg) | chloroquine-induced scratching behavior [3] | antipruritic effect after pretreatment with Slack inhibitor Compound 31 ([3]; WT mice, Compound 31 30 mg/kg i.p. 5 min prior to Compound 6 30 mg/kg i.p.) | inhibition at 10 µM [1] | ability to perform in the accelerating rotarod test (motor function of mice; dose ≥0.39 mg/kg i.p.) | chloroquine-induced scratching behavior of wildtype mice [3, 4] | scratching behavior in Slack knockout mice [3, 4]
O=C(O)COCCN1CCN(C2=Nc3ccccc3Oc3ccc(Cl)cc32)CC1 [Compound 6, 2-(2-(4-(2-Chlorodibenzo[b,f][1,4]oxazepin-11-yl)piperazin-1-yl)ethoxy) acetic acid] | substantial binding | did not measurably bind | did neither impair the motor function | did not significantly alter | ameliorate the scratching behavior in a dose-dependent manner | partly antagonized | – | – | – | –
O=c1nc(CN2CCN(C3=Nc4ccccc4Oc4ccc(Cl)cc43)CC2)[nH][nH]1 [Compound 10, 5-((4-(2-Chlorodibenzo[b,f][1,4]oxazepin-11-yl)piperazin-1-yl)methyl)-1,2-dihydro-3H-1,2,4-triazol-3-one] | substantial binding inhibition | did not measurably bind | did neither impair the motor function | – | ameliorate the scratching behavior in a dose-dependent manner | – | – | – | – | –
CN1CCN(C2=Nc3ccccc3Oc3ccc(Cl)cc32)CC1 [Loxapine, 2-chloro-11-(4-methylpiperazin-1-yl)dibenzo[b,f][1,4]oxazepine, reference compound] | – | did not measurably bind | – | – | – | – | > 50% | significantly reduced the ability of the mice to perform | significantly alleviated | did not affect
